Data on 24 compounds can be found in PubChem BioAssay AID192 (DTP/NCI, 2004).

Where “and” joins values, the source holds several entries; their conditions need not be identical. Identical values can stand only once. Inconclusive results and toxic doses are left out. Peptide text beside a SMILES is read from it. * marks the point of attachment. Cbz = O=C(OCc1ccccc1)*

This assay concerns BDF1 mice, B16 melanoma ip, median survival T/C. In words: NCI In Vivo Anticancer Drug Screen. Data for tumor model B16 Melanoma (intraperitoneal) in B6D2F1 (BDF1) mice. The conditions noted are these: endpoint: median survival time, higher = longer survival. A digest of the protocol:
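Each result divides a survival or tumor-size measurement in the compound-treated group by the same measurement in the vehicle group.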

Where [1] appears, read: dose: 50.0 mg/kg/injection, schedule: Q01DX009 (ip), vehicle: Klucel (hydroxypropylcellulose) (HPC).
[2] abbreviates: dose: 100.0 mg/kg/injection, schedule: Q01DX009 (ip), vehicle: Klucel (hydroxypropylcellulose) (HPC).
[3] abbreviates: dose: 200.0 mg/kg/injection, schedule: Q01DX009 (ip), vehicle: Klucel (hydroxypropylcellulose) (HPC).
[4] abbreviates: dose: 6.25 mg/kg/injection, schedule: Q01DX009 (ip), vehicle: saline with Tween-80.
Where [5] appears, read: dose: 12.5 mg/kg/injection, schedule: Q01DX009 (ip), vehicle: saline with Tween-80.
[6] abbreviates: dose: 25.0 mg/kg/injection, schedule: Q01DX009 (ip), vehicle: saline with Tween-80.
[7] abbreviates: dose: 50.0 mg/kg/injection, schedule: Q01DX009 (ip), vehicle: saline with Tween-80.
[8] abbreviates: dose: 100.0 mg/kg/injection, schedule: Q01DX009 (ip), vehicle: saline with Tween-80.
[9] abbreviates: dose: 12.5 mg/kg/injection, schedule: Q01DX009 (ip), vehicle: Klucel (hydroxypropylcellulose) (HPC).
Where [10] appears, read: dose: 25.0 mg/kg/injection, schedule: Q01DX009 (ip), vehicle: Klucel (hydroxypropylcellulose) (HPC).
The mark [11] stands for this setting: dose: 12.5 mg/kg/injection, schedule: Q01DX009 (ip), vehicle: saline.
The mark [12] stands for this setting: dose: 25.0 mg/kg/injection, schedule: Q01DX009 (ip), vehicle: saline.
Setting [13] is: dose: 50.0 mg/kg/injection, schedule: Q01DX009 (ip), vehicle: saline.
The mark [14] stands for this setting: dose: 200.0 mg/kg/injection, schedule: Q01DX009 (ip), vehicle: saline with Tween-80.

`COc1cccc2c1C(=O)c1c(O)c3c(c(O)c1C2=O)CC(O)(C(C)=O)CC3OC1CC(NC(=O)C(CCCCN)NC(=O)C2CCCN2)C(O)C(C)O1` (stereo not drawn): the T/C is 117 % of control (dose: 10.0 mg/kg/injection, schedule: Q01DX001 (ip), vehicle: water); 123 % of control (dose: 20.0 mg/kg/injection, schedule: Q01DX001 (ip), vehicle: water); 158 % of control (dose: 40.0 mg/kg/injection, schedule: Q01DX001 (ip), vehicle: water); 191 % of control (dose: 80.0 mg/kg/injection, schedule: Q01DX001 (ip), vehicle: water).

With `O=C1/C(=C\c2ccc([N+](=O)[O-])cc2)CS(=O)(=O)C/C1=C/c1ccc([N+](=O)[O-])cc1`, the T/C runs as follows: under setting [1], 91 % of control; under setting [2], 97 % of control; under setting [3], 102 % of control.

`COc1cccc(NC(=O)Nc2cccc(Cl)c2)c1`: the T/C reads like this: under setting [2], 103 % of control; under setting [3], 96 % of control; (dose: 400.0 mg/kg/injection, schedule: Q01DX009 (ip), vehicle: Klucel (hydroxypropylcellulose) (HPC)) 103 % of control.

Consider `CC(C)(C)CC(C)(C)c1ccc(O)c(O)c1`, for which the T/C under setting [4] was 98 % of control; the T/C under setting [5] is 90 % of control; the T/C under setting [6] is 88 % of control and 93 % of control.

With `COC(=O)CNC(=O)C(NC(=O)C1CCCN1C(=O)OCc1ccccc1)C(C)C` (stereo not drawn) (Cbz-Pro-Val-Gly-OMe; configuration not given here), the T/C under setting [7] was 91 % of control and the T/C under setting [8] is 88 % of control.

Turning to `COc1ccc(/C=C2\C(=O)OC(=O)\C2=C\c2ccc(OC)c(OC)c2)cc1OC`, the T/C was 98 % of control under setting [9] and 90 % of control under setting [10].

Consider `CC1C(=O)OCC2=CCN3CCC(OC(=O)C(C)C1(C)O)C23` (stereo not drawn), for which the T/C is, setting by setting: (dose: 5.0 mg/kg/injection, schedule: Q01DX009 (ip), vehicle: saline) 109 % of control; (dose: 10.0 mg/kg/injection, schedule: Q01DX009 (ip), vehicle: saline) 111 % of control; under setting [11], 123 % of control; (dose: 20.0 mg/kg/injection, schedule: Q01DX009 (ip), vehicle: saline) 111 % of control; under setting [12], 121 % of control; (dose: 40.0 mg/kg/injection, schedule: Q01DX009 (ip), vehicle: saline) 109 % of control. The T/C under setting [13] was 121 % of control.

On to `CCN(CC)CCCC(C)Nc1cc(C)nc(Nc2nc3cc(Cl)c(Cl)cc3[nH]2)n1` (stereo not drawn), for which the T/C was 94 % of control (dose: 1.25 mg/kg/injection, schedule: Q01DX009 (ip), vehicle: Klucel (hydroxypropylcellulose) (HPC)); 95 % of control (dose: 2.5 mg/kg/injection, schedule: Q01DX009 (ip), vehicle: Klucel (hydroxypropylcellulose) (HPC)); 96 % of control (dose: 5.0 mg/kg/injection, schedule: Q01DX009 (ip), vehicle: Klucel (hydroxypropylcellulose) (HPC)); 91 % of control (dose: 10.0 mg/kg/injection, schedule: Q01DX009 (ip), vehicle: Klucel (hydroxypropylcellulose) (HPC)).

Regarding `c1cc2n(n1)CCN2`, the T/C runs as follows: under setting [11], 102 % of control; (dose: 18.75 mg/kg/injection, schedule: Q01DX009 (ip), vehicle: saline) 116 % of control; under setting [12], 102 % of control; (dose: 37.5 mg/kg/injection, schedule: Q01DX009 (ip), vehicle: saline) 100 % of control; under setting [13], 106 % of control; (dose: 75.0 mg/kg/injection, schedule: Q01DX009 (ip), vehicle: saline) 93 % of control. Besides, the T/C was 106 % of control (dose: 150.0 mg/kg/injection, schedule: Q01DX009 (ip), vehicle: saline); 108 % of control (dose: 200.0 mg/kg/injection, schedule: Q04DX003 (ip), vehicle: saline with Tween-80); 108 % of control (dose: 400.0 mg/kg/injection, schedule: Q04DX003 (ip), vehicle: saline with Tween-80).

In the case of `CC(=O)/C=C(\C)OC1CCCCC1`, the T/C under setting [7] is 113 % of control, the T/C under setting [8] is 104 % of control and the T/C under setting [14] was 92 % of control.

On to `CCOC(=O)CN1CCC2CC1c1c([nH]c3ccccc13)C2c1cc2c(cc1OC)N(C)C1C(O)(C(=O)OC)C(OC(C)=O)C3(CC)C=CCN4CCC21C43` (stereo not drawn), for which the T/C runs as follows: (dose: 0.06 mg/kg/injection, schedule: Q01DX009 (ip), vehicle: other) 96 % of control; (dose: 0.13 mg/kg/injection, schedule: Q01DX009 (ip), vehicle: other) 108 % of control; (dose: 0.5 mg/kg/injection, schedule: Q01DX009 (ip), vehicle: other) 96 % of control; (dose: 1.0 mg/kg/injection, schedule: Q01DX009 (ip), vehicle: other) 104 % of control; (dose: 2.0 mg/kg/injection, schedule: Q01DX009 (ip), vehicle: other) 117 % of control.

Turning to `CCOc1ncc([N+](=O)[O-])c(OCC)n1`, the T/C under setting [7] was 104 % of control; the T/C under setting [8] is 100 % of control; the T/C (dose: 400.0 mg/kg/injection, schedule: Q01DX009 (ip), vehicle: saline with Tween-80) was 95 % of control.

Regarding `[Br][Pt].[NH-]CC[N-]CC[NH-]`, the T/C by setting is: (dose: 3.13 mg/kg/injection, schedule: Q01DX009 (ip), vehicle: saline) 108 % of control; (dose: 6.25 mg/kg/injection, schedule: Q01DX009 (ip), vehicle: saline) 90 % of control; under setting [11], 91 % of control; under setting [12], 91 % of control.

For `Oc1ccc(/C=N\N=C\c2ccc(O)cc2)cc1`, the T/C is 95 % of control under setting [8] and 90 % of control under setting [14].

Regarding `O=C(O)C(S)c1ccc2ccccc2c1` (stereo not drawn), the T/C by setting is: under setting [2], 101 % of control; under setting [3], 96 % of control.

Consider `O=C(O)CCS(=O)(=O)CCC(=O)O`, for which the T/C was 102 % of control under setting [7], 100 % of control under setting [8] and 102 % of control under setting [14].

`O=C1CC(CO)CN1CCc1ccccc1` (stereo not drawn): the T/C (dose: 100.0 mg/kg/injection, schedule: Q04DX003 (ip), vehicle: Klucel (hydroxypropylcellulose) (HPC)) was 110 % of control; the T/C (dose: 200.0 mg/kg/injection, schedule: Q04DX003 (ip), vehicle: Klucel (hydroxypropylcellulose) (HPC)) is 107 % of control; the T/C (dose: 400.0 mg/kg/injection, schedule: Q04DX003 (ip), vehicle: Klucel (hydroxypropylcellulose) (HPC)) is 102 % of control.

Consider `CCOC12c3cc(OC)ccc3N(S(=O)(=O)c3ccc(C)cc3)CC1C2(Br)Br` (stereo not drawn), for which the T/C under setting [1] is 103 % of control, the T/C under setting [2] is 93 % of control and the T/C under setting [3] was 89 % of control.

Consider `O=C(CBr)OCCOc1ccccc1`, for which the T/C (dose: 5.0 mg/kg/injection, schedule: Q01DX009 (ip), vehicle: saline sonified) is 87 % of control; the T/C (dose: 10.0 mg/kg/injection, schedule: Q01DX009 (ip), vehicle: saline sonified) was 90 % of control; the T/C (dose: 20.0 mg/kg/injection, schedule: Q01DX009 (ip), vehicle: saline sonified) was 102 % of control; the T/C (dose: 40.0 mg/kg/injection, schedule: Q01DX009 (ip), vehicle: saline sonified) is 92 % of control.

As to `Cc1c[n+]2ccccc2n1C`, the T/C by setting is: under setting [6], 99 % of control and 100 % of control; under setting [7], 94 % of control and 96 % of control; under setting [8], 93 % of control and 94 % of control.

As to `CC1Cc2c(Cl)cc(C(=O)NC(Cc3ccccc3)C(=O)O)c(O)c2C(=O)O1` (stereo not drawn), the T/C was 112 % of control (dose: 0.12 mg/kg/injection, schedule: Q01DX009 (ip), vehicle: saline with Tween-80); 119 % of control (dose: 0.25 mg/kg/injection, schedule: Q01DX009 (ip), vehicle: saline with Tween-80); 114 % of control (dose: 0.5 mg/kg/injection, schedule: Q01DX009 (ip), vehicle: saline with Tween-80).

In the case of `CC(=O)Nc1ccc(NC(=O)c2ccc([As](O)O)cc2)cc1`, the T/C was 104 % of control under setting [9], 105 % of control under setting [10], 91 % of control under setting [1] and 105 % of control under setting [2].

Turning to `CCOC(=O)C(C)C(=O)O` (stereo not drawn), the T/C under setting [11] was 116 % of control, the T/C under setting [12] was 101 % of control, the T/C under setting [7] was 99 % of control and the T/C under setting [13] is 98 % of control.

Consider `Cc1cc(N(C)C)cc(C)c1N=Nc1cc[n+]([O-])cc1`, for which the T/C reads like this: (dose: 3.13 mg/kg/injection, schedule: Q01DX009 (ip), vehicle: saline with Tween-80) 98 % of control; under setting [4], 100 % of control; under setting [5], 105 % of control; under setting [6], 108 % of control; under setting [7], 95 % of control and 113 % of control.
